Legend:
Chk1 = target: T1, Chk1 (Homo sapiens, UniProt O14757); assay: Chk1 kinase assay (SPA); assay type: biochemical; conditions: read-out: Chk-1 IC50
T1 construct: His6 (C); made in house; host or cells: Sf-9 insect cells (baculovirus)
T1 sequence (O14757 1-476): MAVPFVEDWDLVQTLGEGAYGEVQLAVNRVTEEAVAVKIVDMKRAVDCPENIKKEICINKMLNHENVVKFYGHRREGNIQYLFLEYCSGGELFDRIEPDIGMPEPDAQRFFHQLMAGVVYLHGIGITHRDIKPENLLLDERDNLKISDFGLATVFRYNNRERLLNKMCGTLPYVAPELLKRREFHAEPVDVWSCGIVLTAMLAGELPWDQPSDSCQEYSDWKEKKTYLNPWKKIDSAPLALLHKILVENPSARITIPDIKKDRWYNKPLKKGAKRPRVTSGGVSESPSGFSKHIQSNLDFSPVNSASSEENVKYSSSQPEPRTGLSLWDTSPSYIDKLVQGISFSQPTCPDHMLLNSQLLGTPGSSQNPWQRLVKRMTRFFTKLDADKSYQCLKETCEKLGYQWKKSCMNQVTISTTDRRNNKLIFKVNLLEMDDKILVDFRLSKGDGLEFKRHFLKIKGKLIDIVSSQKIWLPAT
Text: Recombinant Chk1-His6-fusion protein, expressed in insect cells (Sf-9) and purified by Ni-NTA affinity chromatography was used as kinase. Alternatively, commercially available GST-Chk1-fusion protein (Upstate Biotechnology, Dundee, Scotland) can be used. As substrate for the kinase reaction the biotinylated peptide biotin-Arg-Ser-Gly-Leu-Tyr-Arg-Ser-Pro-Ser-Met-Pro-Glu-Asn-Leu-Asn-Arg-Pro-Arg-OH was used which can be purchased e.g. from the company Biosyntan GmbH (Berlin-Buch, Germany).
Chk1 (200 ng/measurement point) was incubated for 60 min at 22 °C in the presence of different concentrations of test compounds (0 μM and concentrations in the range 0.001-30 μM) in 30 μl assay buffer [50 mM Hepes/NaOH pH7.5, 10 mM MgCl2, 1 mM MnCl2, 0.1 mM sodium ortho-vanadate, 1.0 mM dithiothreitol, 0.5 μM adenosine-tri-phosphate (ATP), 1.9 μM substrate peptide (Biotin-Arg-Ser-Gly-Leu-Tyr-Arg-Ser-ProSer-Met-Pro-Glu-Asn-Leu-Asn-Arg-Pro-Arg-OH), 6 nCi/measurement point ^33P-gamma ATP, 0.008% NP40, 1.5% (v/v) dimethylsulfoxide]. The reaction was stopped by the addition of 20 μl of a suspension of streptavidine coated PVT-SPA-beads (0.15 mg/measurement point, from Amersham Biotech) in an aqueous EDTA/ATP-solution (20 mM EDTA, 50 μM ATP, 1% (v/v) Triton X-100 in PBS).
The resulting mixture was incubated further 16 h at 22° C. to allow the binding of the biotinylated peptide to the streptavidine coated PVT-SPA-beads and to allow the sedimentation of the beads. Subsequently the amount of 33P incorporated into the substrate peptide was evaluated by scintillation measurement in a Topcount NXT (Perkin-Elmer).

[1] = PDK-1-dependent activation and subsequent enzymatic activity of AKT2 (SPA); assay type: biochemical, human; conditions: AKT2 activated by PDK-1 in the assay; read-out: Akt-2 inhibition IC50
Protocol: PDK-1-dependent activation and subsequent enzymatic activity of AKT2: Purified human AKT2 activity was routinely measured in an assay in which the enzyme was first activated by PDK-1 in the presence of phosphatidylinositol-4,5-bisphosphate (PIP2). Once activated, AKT2-dependent phosphorylation of a peptide substrate was measured by scintillation proximity assay (SPA).
Phospholipid vesicles were prepared as follows: 2.2 mg each of phosphatidylcholine (Sigma Cat # P-1287) and phosphatidylserine (Sigma Cat #P-6641) were transferred to a borosilicate glass test tube and dried down under nitrogen. 1 mg of PIP2 (Biomol Cat #PH-106) was suspended in 9.5 ml of 10 mM HEPES, pH 7.5 and transferred to the dried lipids. The tube was vortexed until a milky suspension was produced. Then the tube was placed in a ice water-jacketed cup horn sonicator (Branson Instruments) and subjected to sonication for 20 min at medium power until a translucent phospholipid vesicle preparation was obtained. Aliquots of the vesicle suspension were frozen at −80 °C until needed.
Assays were performed in 96-well polypropylene V-bottom plates. Incubations were carried out for 2 hr at room temperature. The assay mixture contained in a volume of 60 μL: 15 mM MOPS, pH 7.2, 1 mg/ml bovine serum albumin, 18 mM betaglycerolphosphate, 0.7 mM dithiothreitol, 3 mM EGTA, 10 mM MgOAc, 7.5 (M ATP, 0.2 μCi of [γ-^33P]ATP, 7.5 μM biotinylated peptide substrate (biotin-ARRRDGGGAQPFRPRAATF), 0.5 μL of PIP2-containing phospholipid vesicles, 60 pg of purified recombinant human PDK-1, and 172 ng of purified recombinant human AKT2. Test compounds were added from stock solutions in DMSO. The final concentration of DMSO was 2.5%. Following incubation, 10 μL of the assay mixture was transferred to a 96-well clear-bottom polystyrene plate (Wallac Isoplate) containing 0.33 mg of streptavidin-coated SPA beads (Amersham Cat. # RPNQ0007) suspended in 200 μL of phosphate-buffered saline, pH 7.4, containing 50 mM EDTA and 0.1% Triton X-100. After brief shaking, the SPA beads were allowed to settle to the bottom of the plate overnight at room temperature. […] PDK-1 was added at sub-optimal levels so that the assay could sensitively detect inhibitors of AKT2 activation as well as direct AKT2 kinase inhibitors. The z′-factor for the assay was greater than 0.7.
Phosphorylation was readily observed, however, upon addition of purified activated human AKT1 (purchased from Upstate Biotechnology), independent of the presence or absence of added PDK-1 or PIP2-containing vesicles.

VEGFR II (KDR) = target: T2, VEGFR II (KDR) (Homo sapiens, UniProt P35968); assay: KDR kinase assay (HTRF); assay type: biochemical
T2 construct: GST; made in house; host or cells: Sf-9 insect cells
Text: Recombinant KDR-GST-fusion protein, expressed in insect cells (Sf-9) and purified by Glutathion affinity chrormatography was used as kinase. Alternatively, commercially available GST-KDR-fusion protein (Proqinase, Freiburg i.Brsg., Germany) can be used. As substrate for the kinase reaction the biotinylated copolymer poly-(Glu, Tyr-4:1) which can be purchased e.g. from the company Cisbiointernational (Marcoule, France).
In a black low volume 384 well microtiterplate (Greiner, Frickenhausen, Germany) KDR (enzyme amount depending on lot, adjusted to give an dF of about 300-400) was incubated for 20 min at 22° C. in the presence of different concentrations of test compounds (0 μM and concentrations in the range 0.001-30 μM) in 15 μl assay buffer [50 mM Hepes/NaOH pH7.0, 25 mM MgCl2, 5 mM MnCl2, 0.5 mM sodium ortho-vanadate, 1.0 mM dithiothreitol, 1 μM adenosine-tri-phosphate (ATP), 23.5 μg/ml substrate [biotinylated poly-(Glu, Tyr; 4:1)], 1.5% (v/v) dimethylsulfoxide]. The reaction was stopped by the addition of 5 μl of a solution of the detection reagents [0.3 μg/ml Eu-W1024-labeled antiphosphotyrosine antibody (PT66) (Perkin-Elmer) and 4.125 μg/ml […] (Cisbiointernational, Marcoule, France)] in an aqueous EDTA-solution (250 mM EDTA, 0.1% (w/v) bovine serum albumine in 100 mM HEPES/NaOH pH 7.0).
The resulting mixture was incubated further 2 h at 22° C. to allow the binding of the biotinylated substrate and product to the SA-XL-665 and the EU labeled anti-phosphotyrosine antibody. Subsequently the amount of phosphate incorporated into the substrate was evaluated by resonance energy transfer measurement in a HTRF reader (Discovery, Perkin-Elmer).
The IC50 values are determined from the inhibitor concentration that is necessary to inhibit the phosphate incorporation to 50% of the uninhibited incorporation after removal of the blank reading (EDTA-stopped reaction).

T2 sequence (P35968 20-1356, species assumed): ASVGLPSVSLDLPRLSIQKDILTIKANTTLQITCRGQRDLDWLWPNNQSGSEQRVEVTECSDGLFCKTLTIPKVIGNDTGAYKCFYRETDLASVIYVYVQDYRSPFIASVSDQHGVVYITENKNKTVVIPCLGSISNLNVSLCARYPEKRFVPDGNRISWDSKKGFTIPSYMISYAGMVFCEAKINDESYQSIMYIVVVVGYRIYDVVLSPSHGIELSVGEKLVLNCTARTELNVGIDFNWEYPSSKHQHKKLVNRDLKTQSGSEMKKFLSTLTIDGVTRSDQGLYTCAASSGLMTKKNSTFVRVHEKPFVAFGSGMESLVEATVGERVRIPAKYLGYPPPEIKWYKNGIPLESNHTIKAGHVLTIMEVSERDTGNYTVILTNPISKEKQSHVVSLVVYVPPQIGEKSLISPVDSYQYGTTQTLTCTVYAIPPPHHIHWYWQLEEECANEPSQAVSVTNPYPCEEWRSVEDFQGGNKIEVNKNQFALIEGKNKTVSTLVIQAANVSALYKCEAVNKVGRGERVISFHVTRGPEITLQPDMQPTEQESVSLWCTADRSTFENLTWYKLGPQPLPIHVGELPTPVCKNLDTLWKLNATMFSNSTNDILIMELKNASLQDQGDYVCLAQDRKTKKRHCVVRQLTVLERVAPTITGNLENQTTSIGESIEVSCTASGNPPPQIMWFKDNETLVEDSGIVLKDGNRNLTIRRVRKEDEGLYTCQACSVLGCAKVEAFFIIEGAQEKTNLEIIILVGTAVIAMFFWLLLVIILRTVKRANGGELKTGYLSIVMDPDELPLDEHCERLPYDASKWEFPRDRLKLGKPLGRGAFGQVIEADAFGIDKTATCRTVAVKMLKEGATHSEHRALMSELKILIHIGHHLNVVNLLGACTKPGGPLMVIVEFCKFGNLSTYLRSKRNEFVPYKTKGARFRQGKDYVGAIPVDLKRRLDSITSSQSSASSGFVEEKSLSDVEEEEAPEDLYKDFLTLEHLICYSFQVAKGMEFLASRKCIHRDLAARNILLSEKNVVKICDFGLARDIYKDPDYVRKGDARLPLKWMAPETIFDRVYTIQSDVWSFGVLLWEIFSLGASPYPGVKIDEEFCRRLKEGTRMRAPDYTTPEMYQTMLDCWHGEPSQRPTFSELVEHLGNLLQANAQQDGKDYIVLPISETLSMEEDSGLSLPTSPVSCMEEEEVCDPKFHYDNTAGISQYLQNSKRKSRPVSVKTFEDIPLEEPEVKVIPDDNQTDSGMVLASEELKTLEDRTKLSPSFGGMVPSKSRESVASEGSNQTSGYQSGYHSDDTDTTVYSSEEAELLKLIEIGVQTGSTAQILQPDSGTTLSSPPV

Structure (SMILES)	IC50 (Chk1)	IC50 [1]	IC50 (VEGFR II (KDR))
Brc1cnc(Nc2cccc(CN3CC=CC3)c2)nc1NCCc1c[nH]cn1 [Example 65]	440 nM		
O=C(Nc1cccc(Nc2ncc(Br)c(NCCc3c[nH]cn3)n2)c1)N1CCCC1 [Example 220]		6 nM	
CCN(CCN1CCCCC1)C(=O)Nc1cccc(Nc2ncc(Br)c(NCCc3c[nH]cn3)n2)c1 [Example 389]			330 nM
CN1CC(=O)N(c2cccc(Nc3ncc(Br)c(NCCc4c[nH]cn4)n3)c2)C1=O [Example 395]			32 nM
O=C1N[C@H](C(=O)NCCCNc2nc(Nc3cccc(NC(=O)N4CCCC4)c3)ncc2Br)CS1 [Example 452]			9.7 nM
CC(C)CC(=O)NCCCNc1nc(Nc2cccc(NC(=O)N3CCCC3)c2)ncc1Br [Example 473]			400 nM
CCOC(=O)NCCCNc1nc(Nc2cccc(NC(=O)N3CCCC3)c2)ncc1Br [Example 477]			740 nM
NC(=O)C1(C(=O)NCCCNc2nc(Nc3cccc(NC(=O)[C@@H]4CCCN4)c3)ncc2Br)CC1 [Example 492]		23 nM	
CC(C)(C(N)=O)C(=O)NCCCNc1nc(Nc2cccc(NC(=O)[C@H](N)Cc3ccccc3)c2)ncc1Br [Example 504]		24 nM	
C[C@@H](N)C(=O)NCCCNc1nc(Nc2cccc(NC(=O)N3CCCC3)c2)ncc1Br [Example 512]			1400 nM
CC(C)(C(N)=O)C(=O)NCCCNc1nc(Nc2cccc(NC(=O)[C@@H](N)c3ccccc3)c2)ncc1Br [Example 521]		44 nM	
O=C1N[C@H](C(=O)NCCCNc2nc(Nc3cccc(N4C(=O)CNC4=O)c3)ncc2Br)CS1 [Example 535]			2.6 nM
O=C1CC[C@@H](C(=O)NCCCNc2nc(Nc3cccc(N4C(=O)CNC4=O)c3)ncc2Br)N1 [Example 539]			10.6 nM
CC(C)(C(N)=O)C(=O)NCCCNc1nc(Nc2cccc(N3C(=O)CNC3=O)c2)ncc1Br [Example 540]		19 nM	
CN1CC(=O)N(c2cccc(Nc3ncc(Br)c(NCCCNC(=O)[C@@H]4CSC(=O)N4)n3)c2)C1=O [Example 546]		4 nM	4 nM
O=C(Cc1ccc(Cl)cc1Cl)NCCCNc1nc(Nc2cccc(NC(=O)N3CCCC3)c2)ncc1Br [Example 699]	20 nM		
C#CCOc1nc(Nc2cc(NC(=O)[C@H](N)Cc3ccccc3)cc(NC(=O)N3CCCC3)c2)ncc1Br [Example A16]	300 nM		
C#CCOc1nc(Nc2cc(CO)cc(NC(=O)[C@H](N)Cc3ccccc3)c2)ncc1Br [Example A17, (αR)-α-Amino-N-[3-[[5-bromo-4-(prop-2-ynyloxy)pyrimidin-2-yl]amino]-5-(hydroxymethyl)phenyl]benzenepropanamide]	200 nM		
C#CCOc1nc(Nc2cc(CO)cc(NCCO)c2)ncc1Br [Example A18, 3-[[5-Bromo-4-(prop-2-ynyloxy)pyrimidin-2-yl]amino]-5-[(2-hydroxyethyl)amino]benzenemethanol]	80 nM		

Reference: patent US7504410B2, “Chk-, Pdk- and Akt-inhibitory pyrimidines, their production and use as pharmaceutical agents” (Schering Aktiengesellschaft, priority 2002, dated 2009)
